Measured values reported in patent US7288558B2, “Pharmaceutical composition for treatment for urinary diseases comprising LPA receptor regulator” (Ono Pharmaceuticals Co., Ltd., priority 2001, dated 2007).

Experiments:
[1] = system: urethra; assay: Measurement of urethral pressure by drugs in pithed male rats, i.v.; format: in vivo, rat; parameters: key to urethral pressure: ↑: increase; (—): no effect; settings: for urethral pressure / urethral pressure (increase): male pithed rats; for urethral pressure: class symbol; for intraurethral pressure: 1 mg/kg i.v.
Protocol: Male CD(SD)IGS rats (Charles River Japan Inc., 8-9 week-old in use) were anesthetized by intraperitoneal administration of sodium pentbarbital (50 mg/kg). After incision of cervical median, broncho cannula and arterial catheter were inserted. The measurement of blood pressure was started via arterial catheter and subsequently a stainless-steel rod was inserted into the spinal column through the orbit and foramen magnum for the destruction of the spinal cord. The broncho cannula was connected to the artificial breathing device for small animals (SN-480-7, Shinano, Tokyo, Japan) immediately and the animals were ventilated artificially with room air in a tidal volume of 6 mL/kg body weight at a rate of 70 breaths/min. After confirming the gentle decrease of blood pressure and stabilization of the blood pressure at the low level indicating a success of destruction of the spinal cord, intravenous catheter was inserted into femoral vein for drug administration. Urinary bladder was exposed by incision of hypogastrium median and urethra was tied off in the vicinity of pubic bone. Urethra catheter was inserted into urethra through dome of urinary bladder and fixed by ligation at the bladder neck. Urethra catheter was connected to the pressure transducer and urethral pressure was measured. Subsequently, urethral pressure was adjusted about 20 mmHg and left for about 1 hour. After it was confirmed stability of urethral pressure, and subsequently 10 μg/kg/0.5 ml phenylephrine was administrated and it was confirmed that urethral pressure increased. Various drugs included 18:3-LPA were estimated 0.5 ml/kg in the same way.

[2] = system: isolated urethral preparations; assay: Measurement of urethra contraction, isolated female rat urethral preparations (Magnus tube); format: cell-based
Description: After sacrificing female CD(SD)IGS rats (Charles River Japan Inc., 8-9 week-old in use) by blowing heads and exsanguinating from jugular vein, urethra under pubis was isolated carefully and soaked in Krebs-Henseleit solution (112 mmol/L NaCl, 5.9 mmol/L KCl, 2.0 mmol/L CaCl2, 1.2 mmol/L MgCl2, 1.2 mmol/L NaH2PO4, 25.0 mmol/L NaHCO3, 11.5 mmol/L glucose) immediately. Urethra part was cut from isolated sample, and was dissected in flat and subsequently was cut parallel to circular muscle. Thus, 2-3 strips of sample that are 3-4 mm long by 2-3 mm wide were made.
(§1) The made samples were suspended in the Magnus tube (volume: 10 mL) filled by Krebs-Henseleit solution (vented by 37±1° C., mixed gas [95% O2+5% CO2]). The samples were added about 0.5 g tension and stabilized for 60 min, and subsequently the contractile activity was recorded on recorder (linearcoder WR3320: GRAPHTEC CORP., thermal pen-writing recorder RJG-4128: Nihon Kohden Ltd) via a pressure amplifier (AP-641G, AP-601G, Nihon Kohden Ltd) from isometric transducer (Force displacement transducer) (FD pick-up TB-611T: Nihon Kohden Ltd).
The contractile reaction of control was given by stimulation of high concentration KCl solution (solution replaced all NaCl with KCl). By the addition of LPA and phenylephrine (comparison compound: α agonist) cumulatively, dose-dependency of urethra contraction was measured. […]

[3] = system: isolated prostatic preparations; assay: Contractile test of isolated prostate, male rats (Magnus tube); format: cell-based; settings: isolated male rat prostate
Description: After sacrificing male CD(SD)IGS rats (Charles River Japan Inc., 8-9 week-old in use) by blowing heads and exsanguinating from jugular vein, prostate was isolated and soaked in iced Krebs-Henseleit solution (112 mmol/L NaCl, 5.9 mmol/L KCl, 2.0 mmol/L CaCl2, 1.2 mmol/L MgCl2, 1.2 mmol/L NaH2PO4, 25.0 mmol/L NaHCO3, 11.5 mmol/L glucose) immediately. Prostate was separated right-and-left part from isolated sample, fatty tissue was removed and longitudinal strips (2 to 3 strips) were isolated from a prostate lobe.
as §1, with “were” for “were added about 0.5 g tension and”, “min and added about 0.5-1 g tension,” for “min,”, “AP-601G:” for “AP-601G,”, “Ltd). 0.01-10 μM phenylephrine was added in Magnus tube. The contraction by 10 μM phenylephrine is the contractile reaction of control. […] After the samples were suspended, it was washed over and over, opportunity. […]” for “Ltd).”

[4] = system: micturition; assay: Cystometry in anesthetized female rats with intravenous infusion of LPA; format: in vivo, rat; settings: infusion rate 15 mg/kg/hr/3 mL i.v.
Description: Female CD(Sprague-Dawley)IGS rats (Charles River Japan Inc., 12 to 13 weeks old in use) were anesthetized with an s.c. administration of urethane (1.2 g/kg) and placed in a supine position and the bladder and proximal urethra were exposed through a midline abdominal incision. The ureters were tied with silk suture distally and cut. Bladder was exposed and a polyethylene catheter (JMS cutdown tube, C3) was inserted through the bladder dome and secured with a ligature. The other side of the catheter was connected to a pressure transducer through two T tubes to measure intravesical pressure. Another side of T tubes was connected to an infusion pump for performing cystometrograms (the other side of T tube was connected to a syringe). The carotid artery was cannulated to measure blood pressure and the jugular vein was cannulated to administration of the test compounds. Rats in which the above mentioned operation was performed were placed to 37° C. thermostat plate and citric acid solution (pH4.0) or saline were infused into bladder at the rate of 2.85 mL/hr. After cystometrograms show rhythmic reflex saline was infused via jugular vein at the infusion rate of 3 mL/kg/hr. After an appropriate time 18:3-LPA prepared with 5 mg/mL was infused at the infusion rate of 3 mL/kg/hr. After the 18:3-LPA infusion was stopped saline was infused again. […]

[5] = system: colon and ileum; settings: rats, literature; cited from earlier work
[6] = system: LPA dependent contraction in rat isolated urethra; assay: Inhibitory activity for LPA dependent contraction in rat isolated urethra; format: cell-based; settings: isolated male rat urethra, 10 μM LPA
Description: Male CD(SD)IGS rats (Charles River Japan Inc., 8-9 week-old in use) anesthetized by diethyl ether were sacrificed by taking blood from the descending aorta, and subsequently urethra under pubis was isolated with urinary bladder and vesicular gland carefully and soaked in Krebs-Henseleit solution (112 mmol/L NaCl, 5.9 mmol/L KCl, 2.0 mmol/L CaCl2, 1.2 mmol/L MgCl2, 1.2 mmol/L NaH2PO4, 25.0 mmol/L NaHCO3, 11.5 mmol/L glucose) immediately. Urethra was cut from extracted sample and was dissected on the side of abdominal in flat with scissors for ophthalmic surgery. Thus, the strip of sample that are 3-4 mm long by 2-3 mm wide was made. […] The samples were added about 0.5 g tension and stabilized for 60 min, and subsequently the contractile activity was recorded on recorder (linearcoder WR3320: GRAPHTEC CORP., thermal pen-writing recorder RJG-4128: Nihon Kohden Ltd) via a pressure amplifier (AP-641G, AP-601G, Nihon Kohden Ltd) from Force displacement transducer (FD pick-up TB-611T: Nihon Kohden Ltd). […]
In other words, the isolated urethra was stimulated repeatedly by 10 μM LPA until a constant response was attained. […] Then the urethral contraction was monitored (post value). The inhibitory activity of compound A was calculated as the inhibition (%)={1-(post value)/(pre value)}×100. […]

[7] = system: urethra; assay: Rat urethral pressure in vivo after intravenous compound A; settings: male rats, 3 mg/kg i.v.
Description: Male CD(SD)IGS rats (Charles River Japan Inc., 8-9 week-old in use) were anesthetized by subcutaneous administration of 1.2 g/kg urethane. After incision of cervical median, jugular vein catheter for administration of compound and arterial catheter for measurement of blood pressure were inserted. Subsequently, an incision in the hypogastrium median was made and urethra was tied off in the vicinity of pubic bone. Urethral catheter was inserted into urethra by cutting open dome of urinary bladder and fixed by ligation in of the bladder neck. Another end of urethral catheter was connected to the pressure transducer and urethral pressure was measured. Urethral pressure was adjusted about 20 mmHg and left at rest until it was stabilized (for about 20 minutes). Subsequently, compound A was administrated intravenously and blood pressure and urethral pressure were measured for 20 minutes, and then in order to monitor the base-line value of the intraurethral pressure 1 mL of pentobarbital was intraveniously injected. After the intraurethral pressure was decreased to the prolonged plateau, it was estimated as a base-line value. Compound A was administrated intraveniously (3 mg/kg, 1 mL/kg). Vehicle was confirmed as 10% DMSO-90% rat plasma solution. […]

[8] = biological target: EDG-2 (Homo sapiens, UniProt Q92633); settings: EDG-2 over-expressed cell, specification of WO01/60819; cited from earlier work
Chain of EDG-2 (Q92633 whole entry): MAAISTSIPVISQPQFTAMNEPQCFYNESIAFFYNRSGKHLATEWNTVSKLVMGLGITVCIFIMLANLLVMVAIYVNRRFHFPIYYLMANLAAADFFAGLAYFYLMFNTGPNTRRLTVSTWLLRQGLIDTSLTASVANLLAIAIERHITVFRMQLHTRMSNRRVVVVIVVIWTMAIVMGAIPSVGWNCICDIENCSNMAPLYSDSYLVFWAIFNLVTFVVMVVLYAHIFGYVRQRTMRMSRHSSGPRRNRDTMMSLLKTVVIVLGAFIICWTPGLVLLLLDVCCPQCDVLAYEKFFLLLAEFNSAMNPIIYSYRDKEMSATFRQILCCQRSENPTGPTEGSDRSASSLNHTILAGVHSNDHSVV

CC/C=C\C/C=C\C/C=C\CCCCCCCC(=O)OCC(O)CO (centres unmarked) [1-monolinolenoyl (18:3)-glycerol]
urethral pressure ([1]; dose 1 mg/kg i.v.): —
intraurethral pressure ([1]; pithed rat, in words): hardly increase

CC/C=C\C/C=C\C/C=C\CCCCCCCC(=O)OC[C@@H](O)COP(=O)(O)O [18:3-LPA, 1-Linolenoyl lysophosphatidic acid]
desensitization of urethral contraction [2]: desensitization was not caused
intensity of contraction of urethra compared with phenylephrine ([2]; cumulative addition, FIG. 1): more potent
desensitization of prostate contraction [3]: desensitization was caused
contraction of isolated prostate ([3]; organ bath in vitro, FIG. 2): contracts isolated urethra and prostate
urethral pressure (increase) ([1]; dose 10 μg/kg i.v.): 3.0 mmHg
urethral pressure (increase) ([1]; dose 100 μg/kg i.v.): 9.0 mmHg
urethral pressure (increase) ([1]; dose 1 mg/kg i.v.): 15.5 mmHg
intraurethral pressure, dose dependency ([1]; pithed rat, intravenous injection, in words): increased the intraurethral pressure in a dose-dependent manner
micturition pressure versus infusion of saline [4]: increased
intercontraction interval versus saline infusion ([4]; FIG. 6): shorter
activity for the contraction of colon and ileum [5]: most potent activity

COC(=O)CCSCc1ccc(-c2onc(C)c2NC(=O)OC(C)c2ccccc2Cl)cc1 (centres unmarked) [compound A, methyl 3-({4-[4-({[1-(2-chlorophenyl)ethoxy]carbonyl}amino)-3-methyl-5-isoxazolyl]benzyl}sulfanyl)propanoate]
IC50 ([6]; 0.5 h, 30 min incubation at 37° C., read-out: 50% inhibitory concentration (IC50) for urethral contraction by LPA): 70 nM
inhibition of urethral contraction by LPA ([6]; in words): inhibited the urethral contraction by LPA, dose-dependently
maximal amounts of the decreasing intraurethral pressure, of an absolute value (pressure before injection minus base-line value) [7]: about 50%
intraurethral pressure ([7]; urethane anesthesia, versus vehicle, FIG. 5): greatly decreased
LPA receptor (EDG-2) antagonistic activity [8]: potent EDG-2 antagonistic activity

CCCCCCCCCCCCCCCC(=O)OCC(O)COP(=O)(O)O (centres unmarked) [(16:0)-LPA, 1-palmitoyl lysophosphatidic acid]
activity for the contraction of colon and ileum [5]: also have the activity

CC/C=C\C/C=C\C/C=C\CCCCCCCC(=O)OC[C@@H](O)COP(=O)([O-])OCC[N+](C)(C)C [LPC (18:3), 1-linolenoyl (18:3)-LPC (lysophosphatidyl choline)]
urethral pressure ([1]; dose 1 mg/kg i.v.): —
intraurethral pressure ([1]; pithed rat, in words): hardly increase

CNC[C@H](O)c1cccc(O)c1 [L-phenylephrine]
urethral pressure (increase) ([1]; dose 10 μg/kg i.v.): 7.5 mmHg

CCCCC/C=C\C/C=C\CCCCCCCC(=O)OC[C@@H](O)COP(=O)(O)O [(18:2)-LPA, 1-linoleoyl lysophosphatidic acid]
activity for the contraction of colon and ileum [5]: also have the activity
